Measured values reported in article PMC11247627, “Evaluation of Antibacterial Functionalized Dihydropyrimidine Photoaffinity Probes Toward Mechanism of Action Studies” (ACS Medicinal Chemistry Letters, 2024).
Converted amounts (≈) assume the structure as drawn. Like-named read-outs stand apart in the source and are kept apart here.

Key:
Type in all cases: cell-based
[1] = system: Staphylococcus aureus ATCC 33591 (MRSA); test: Antibacterial broth microdilution assay (MIC), MRSA ATCC 33591; conditions: 18 h; for MIC: Staphylococcus aureus, read-out: MIC ATCC 33591
Experimental: (§1) These 24 DHP analogues were then screened for inhibition of Staphylococcus aureus growth using microdilution assays. Growth inhibition was examined in methicillin-sensitive S. aureus (ATCC 12600) and two strains of MRSA (ATCC 33591 and ATCC 43300). Antibiotic controls were included in the screen, including carbenicillin, erythromycin, gentamycin, trimethoprim, and vancomycin, and minimum inhibitory concentrations (MICs) were determined for each compound, which were defined as the concentration required to inhibit >95% of bacterial growth (Table 1).
(§2) Antibacterial Microdilution Assay (MIC Determination)
(§3) 1240 The MIC determination assays were performed in a BSL-2 laboratory with appropriate security and biosafety measures. The MICs were determined using a broth microdilution assay closely following the guidelines of the Clinical and Laboratories Standards Institute (CLSI). MICs were determined in duplicate for two biological replicates using 2-fold serial dilutions of test compounds or commercial antibiotics in cation-adjusted Mueller-Hinton broth. The central 60 wells of 96-well plates were 1245 prepared with the compound of interest at the indicated concentration, where 2 µL of the compound in DMSO were added prior to the addition of the culture. Overnight cultures of the different Staphylococcus aureus strains were diluted to provide an initial inoculum of approximately 5 X 10 5 CFU/mL that was delivered to each well in 198 µL of culture (final DMSO concentration of ~1%). Initial inoculum concentrations were verified by plating to count CFU/mL. Each plate was equipped with 1250 experimental controls for full growth (6 wells) and full growth inhibition (6 wells), and all control wells were in the presence of 1% DMSO. The outer 36 wells were filled with 200 µL of culture each to prevent growth effects on the interior 60 wells. The plates were incubated at 37 °C for 18 hours, at which time they were removed from the incubator and were allowed to equilibrate to room temperature for 30 minutes. Absorbance of each well at 600 nm was then read using a microplate reader to 1255 determine the MIC, and visual confirmation of growth inhibition was also performed. If variation was seen in the experimental values, the highest value of two independent trials was listed.

[2] = system: Staphylococcus aureus ATCC 12600; test: Antibacterial broth microdilution assay (MIC), methicillin-sensitive S. aureus ATCC 12600; conditions: for MIC: Staphylococcus aureus, read-out: MIC ATCC 12600
Experimental: as §1, §2, §3

[3] = system: Staphylococcus aureus ATCC 43300 (MRSA); test: Antibacterial broth microdilution assay (MIC), MRSA ATCC 43300; conditions: 18 h; for MIC: Staphylococcus aureus, read-out: MIC ATCC 43300
Experimental: as §1, §2, §3

[4] = system: Staphylococcus aureus; test: S. aureus growth inhibition (all three strains or strain not specified); conditions: for antibacterial potency of alkynyl esters compared to their ethyl variants: MIC comparison, Table 3; for MIC: Staphylococcus aureus, read-out: concentration inhibiting S. aureus growth (MIC)
Experimental: as §1, §2, §3

[5] = amount inhibiting >95% of growth (A600), suffix 'I' = partial growth inhibition at the value, >95% at higher concentrations
[6] = ATCC12600, amount inhibiting >95% of growth (A600), 18 h, suffix 'I' = partial growth inhibition at the value, >95% at higher concentrations
[7] = all three S. aureus strains or strain not specified

Compound: CCOC(=O)C1=C(c2ccccc2)NC(N)=NC1c1cccc(C(F)(F)F)c1 (stereo not drawn) [6d]
- MIC [1, 5]: 32 µg/mL (≈ 82.2 µM)
- MIC [2, 6]: 32 µg/mL (≈ 82.2 µM)
- MIC [3, 5]: 32 µg/mL (≈ 82.2 µM)

Compound: CC[C@H]1OC(=O)[C@H](C)[C@@H](O[C@H]2C[C@@](C)(OC)[C@@H](O)[C@H](C)O2)[C@H](C)[C@@H](O[C@@H]2O[C@H](C)C[C@H](N(C)C)[C@H]2O)[C@](C)(O)C[C@@H](C)C(=O)[C@H](C)[C@@H](O)[C@]1(C)O [erythromycin, reference compound]
- MIC [1, 5]: > 512 µg/mL
- MIC [2, 6]: 0.5 µg/mL (≈ 0.681 µM)
- MIC [3, 5]: > 512 µg/mL

Compound: CCOC(=O)C1=C(c2ccccc2)NC(N)=NC1c1cccc(OC)c1 (stereo not drawn) [6t]
- MIC [1, 5]: > 64 µg/mL
- MIC [2, 6]: > 64 µg/mL
- MIC [3, 5]: > 64 µg/mL

Compound: C#CCCOC(=O)C1=C(c2ccccc2)NC(N)=NC1c1ccc(C2(C(F)(F)F)N=N2)cc1 (stereo not drawn) [26e]
- MIC [2, 6]: 8 µg/mL (≈ 17.6 µM)
- MIC [3, 5]: 8 µg/mL (≈ 17.6 µM)
- antibacterial potency of alkynyl esters compared to their ethyl variants [4]: 2-fold decreased potency

Compound: C#CCCOC(=O)C1=C(c2ccccc2)NC(N)=NC1c1cc(Cl)cc(Cl)c1 (stereo not drawn) [26d]
- MIC [2, 6]: 16 µg/mL (≈ 38.6 µM)
- MIC [3, 5]: 16 µg/mL (≈ 38.6 µM)
- antibacterial potency of alkynyl esters compared to their ethyl variants [4]: 2-fold decreased potency

Compound: CCOC(=O)C1=C(c2ccc(C3(C(F)(F)F)N=N3)cc2)NC(N)=NC1c1ccc(CC(C)C)cc1 (stereo not drawn) [26c]
- MIC [2, 6]: 2 µg/mL (≈ 4.12 µM)
- MIC [3, 5]: 2 µg/mL (≈ 4.12 µM)

Compound: C#CCCCOC(=O)C1=C(c2ccc(C3(C(F)(F)F)N=N3)cc2)NC(N)=NC1c1ccc(CC(C)C)cc1 (stereo not drawn) [26h]
- MIC [2, 6]: 2 µg/mL (≈ 3.82 µM)
- MIC [3, 5]: 2 µg/mL (≈ 3.82 µM)
- antibacterial potency of alkynyl esters compared to their ethyl variants [4]: equal potency
- MIC [4, 7]: 2 µg/mL (≈ 3.82 µM)

Compound: CCOC(=O)C1=C(c2ccccc2)NC(N)=NC1c1ccccc1[N+](=O)[O-] (stereo not drawn) [6a]
- MIC [1, 5]: > 64 µg/mL
- MIC [2, 6]: > 64 µg/mL
- MIC [3, 5]: > 64 µg/mL

Compound: CCOC(=O)C1=C(c2cccc(C)c2)NC(N)=NC1c1ccc(CC(C)C)cc1 (stereo not drawn) [7j]
- MIC [1, 5]: 4 µg/mL (≈ 10.2 µM)
- MIC [2, 6]: 4 µg/mL (≈ 10.2 µM)
- MIC [3, 5]: 4 µg/mL (≈ 10.2 µM)

Compound: CCOC(=O)C1=C(c2ccccc2)NC(N)=NC1c1cc(C)cc(C)c1 (stereo not drawn) [6q]
- MIC [1, 5]: > 64 µg/mL
- MIC [2, 6]: > 64 µg/mL
- MIC [3, 5]: > 64 µg/mL

Compound: CCOC(=O)C1=C(c2ccccc2)NC(N)=NC1c1ccc(C)c(C)c1 (stereo not drawn) [6p]
- MIC [3, 5]: 32 µg/mL (≈ 91.6 µM)

Compound: CCOC(=O)C1=C(c2ccccc2)NC(N)=NC1c1ccc(C(F)(F)F)cc1 (stereo not drawn) [6e]
- MIC [1, 5]: 16 µg/mL (≈ 41.1 µM)
- MIC [2, 6]: 16 µg/mL (≈ 41.1 µM)
- MIC [3, 5]: 16 µg/mL (≈ 41.1 µM)

Compound: C#CCCCOC(=O)C1=C(c2ccccc2)NC(N)=NC1c1cc(Cl)cc(Cl)c1 (stereo not drawn) [26f]
- MIC [2, 6]: 4 µg/mL (≈ 9.34 µM)
- MIC [3, 5]: 4 µg/mL (≈ 9.34 µM)
- antibacterial potency of alkynyl esters compared to their ethyl variants [4]: 2-fold increased potency

Compound: O=Cc1ccc(C2(C(F)(F)F)N=N2)cc1 [compound 25]
- MIC [2, 6]: > 64 µg/mL
- MIC [3, 5]: > 64 µg/mL
- MIC [4, 7]: > 64 µg/mL

Compound: CCOC(=O)C1=C(c2ccccc2)NC(N)=NC1c1c(C)cccc1C (stereo not drawn) [6n]
- MIC [1, 5]: 64 µg/mL (≈ 183 µM)

Compound: gentamycin [reference compound]
- MIC ATCC 33591 [1, 5]: 4 µg/mL
- MIC ATCC 12600 ([2]; amount inhibiting >95% of growth (A600), 18 h, suffix 'I' = partial growth inhibition at the value, >95% at higher concentrations): 4 µg/mL
- MIC ATCC 43300 [3, 5]: 128 µg/mL

Compound: CCOC(=O)C1=C(c2ccccc2)NC(N)=NC1c1cc(OC)cc(OC)c1 (stereo not drawn) [6v]
- MIC [1, 5]: > 64 µg/mL
- MIC [2, 6]: > 64 µg/mL
- MIC [3, 5]: > 64 µg/mL

Compound: CCOC(=O)C1=C(c2ccccc2)NC(N)=NC1c1ccc(C2(C(F)(F)F)N=N2)cc1 (stereo not drawn) [26a]
- MIC [2, 6]: 4 µg/mL (≈ 9.32 µM)
- MIC [3, 5]: 4 µg/mL (≈ 9.32 µM)

Compound: CCOC(=O)CC(=O)c1ccc(C2(C(F)(F)F)N=N2)cc1 [compound 11]
- MIC [2, 6]: > 64 µg/mL
- MIC [3, 5]: > 64 µg/mL
- MIC [4, 7]: > 64 µg/mL

Compound: CCOC(=O)C1=C(c2ccc(C3(C(F)(F)F)N=N3)cc2)NC(N)=NC1c1cc(Cl)cc(Cl)c1 (stereo not drawn) [26b]
- MIC [2, 6]: 4 µg/mL (≈ 8.03 µM)
- MIC [3, 5]: 4 µg/mL (≈ 8.03 µM)

Compound: CN[C@H](CC(C)C)C(=O)N[C@H]1C(=O)N[C@@H](CC(N)=O)C(=O)N[C@H]2C(=O)N[C@H]3C(=O)N[C@H](C(=O)N[C@H](C(=O)O)c4cc(O)cc(O)c4-c4cc3ccc4O)[C@H](O)c3ccc(c(Cl)c3)Oc3cc2cc(c3O[C@@H]2O[C@H](CO)[C@@H](O)[C@H](O)[C@H]2O[C@H]2C[C@](C)(N)[C@H](O)[C@H](C)O2)Oc2ccc(cc2Cl)[C@H]1O [vancomycin, reference compound]
- MIC [1]: 2 µg/mL (≈ 1.38 µM)
- MIC ([2]; ATCC12600, 18 h): 2 µg/mL (≈ 1.38 µM)
- MIC [3]: 2 µg/mL (≈ 1.38 µM)
- MIC [4]: 2 µg/mL (≈ 1.38 µM)

Compound: C#CCCCOC(=O)C1=C(c2ccccc2)NC(N)=NC1c1ccc(C2(C(F)(F)F)N=N2)cc1 (stereo not drawn) [26g]
- MIC [2, 6]: 4 µg/mL (≈ 8.56 µM)
- MIC [3, 5]: 4 µg/mL (≈ 8.56 µM)
- antibacterial potency of alkynyl esters compared to their ethyl variants [4]: equal potency

Compound: CC1(C)S[C@@H]2[C@H](NC(=O)C(C(=O)O)c3ccccc3)C(=O)N2[C@H]1C(=O)O (stereo partly drawn) [carbenicillin, reference compound]
- MIC [1, 5]: 128 µg/mL (≈ 338 µM)
- MIC [2, 6]: 2 µg/mL (≈ 5.29 µM)
- MIC [3, 5]: 32 µg/mL (≈ 84.6 µM)

Compound: CCOC(=O)C1=C(c2ccccc2)NC(N)=NC1c1cccc([N+](=O)[O-])c1 (stereo not drawn) [6b]
- MIC [2, 6]: 64 µg/mL (≈ 175 µM)

Compound: CCOC(=O)C1=C(c2ccccc2)NC(N)=NC1c1ccccc1F (stereo not drawn) [6f]
- MIC [1, 5]: > 64 µg/mL
- MIC [2, 6]: > 64 µg/mL
- MIC [3, 5]: > 64 µg/mL

Compound: CCOC(=O)C1=C(c2ccccc2)NC(N)=NC1c1ccc(C)cc1 (stereo not drawn) [6m]
- MIC [1, 5]: > 64 µg/mL
- MIC [2, 6]: > 64 µg/mL
- MIC [3, 5]: > 64 µg/mL

Compound: CCOC(=O)C1=C(CC)NC(N)=NC1c1ccc(-c2ccccc2)cc1 (stereo not drawn) [7d]
- MIC [1, 5]: 8 µg/mL (≈ 22.9 µM)

Compound: CCOC(=O)C1=C(c2ccccc2)NC(N)=NC1c1ccc([N+](=O)[O-])cc1 (stereo not drawn) [6c]
- MIC [1, 5]: 64 µg/mL (≈ 175 µM)
- MIC [2, 6]: 64 µg/mL (≈ 175 µM)
- MIC [3, 5]: 64 µg/mL (≈ 175 µM)
